Experimental data: patent publication US4341756A, “Novel amino-dioxepane intermediates for the synthesis of new non-ionic contrast media” (The Regents of the University of California, priority 1980, dated 1982)

Tests used:
[1] = system: mice; experiment: Systemic Toxicity: LD50 of compound injected intravenously in mice; type: in vivo; details: intravenous, groups of 10 mice
Description: (§1) Employing conventional procedures, the following tests were carried out and compared with known commercially available contrast media. The following tables indicate the results.
LD50 (gI/kg bw) of compound injected
intravenously in groups of 10 mice.

[2] = system: rats; experiment: Neurotoxicity: neural deficits after intracisternal injections in rats; type: in vivo; details: for Deficit Scores: average of 10 rats, 0 = normal; for Neural deficits: rats
Description: as §1
tions in rats with chronically implanted
cannulas into the right ventricle.
Deficit scores were calculated on the basis of a preset rating (average o

[3] = system: rats; experiment: Aversive conditioning in rats (preference/avoidance after injection into the lateral ventricle); type: in vivo; details: for Aversion expressed in relation to Metrizamide: Metrizamide = 1; for % Aversion: injection into the lateral ventricle, average from a group of 10 rats
Description: as §1
Aversive conditioning in rats: (Test-
ing for preference/avoidance after an injection
into the lateral ventricle via a chronically im-
planted cannula) (Average from a group of 10 rats)

[4] = system: Blepharisma americ.; experiment: Cell Toxicity: LD50 at 4' of a standardized culture of a protozoan; type: cell-based; details: for LD50: at 4', standardized culture of Blepharisma americ.
Description: as §1
(LD50 at 4' of a standardized culture of a
protozoan Blepharisma americ.)

[5] = Water solubility; type: physicochemical; details: at 20° C.
Source text: (§2) This compound was synthesized as described for the hydroxyacetyl analog (VIIIb). The product was obtained in 69% yield as a colorless glassy solid.

[6] = Viscosity; type: physicochemical; details: 37° C., 300 mgI/ml
Source text: as §2

SMILES | LD50 [1] [gI/kg bw] | Deficit Scores ([2]; 40 mg I) | Deficit Scores ([2]; 60 mg I) | Neural deficits ([2]; 100 mg I) | Aversion expressed in relation to Metrizamide [3] [times less aversive] | % Aversion [3] [%] | LD50 [4] [mg I/ml] | solubility in water [5] [mgI/ml] | viscosity [6] [cps] | Neural deficits ([2]; 40 mg I) | Deficit Scores ([2]; 100 mg I) | Conclusion on toxicity ([4]; compared with Iopamidol and Metrizamide) | Neural deficits ([2]; 60 mg I)
C[C@H](O)C(=O)Nc1c(I)c(C(=O)NC(CO)CO)c(I)c(C(=O)NC(CO)CO)c1I [Iopamidol, N,N'-di(1',3'-dihydroxypropyl-2') 5-L-lactoylamido triiodoisophthaldiamide, reference compound] | 18.7 | 1.75 ± 0.96 | 22.0 | Death | 1.2 | 24.6 | 136 | – | – | – | – | – | –
CC(=O)Nc1c(I)c(C(=O)N[C@H]2C(O)O[C@H](CO)[C@@H](O)[C@@H]2O)c(I)c(N(C)C(C)=O)c1I (stereo partly shown) [Metrizamide, 3-acetamido-5-(N-methylacetamido) triiodobenzoyl derivative of glucosamine, reference compound] | 12.1 | 25.3 ± 10.1 | 84.2 ± 12.3 | Death | 1 | 29.8 | 133 | – | – | – | – | – | –
CC(O)C(=O)Nc1c(I)c(C(=O)NC(CO)C(O)CO)c(I)c(C(=O)NC(CO)C(O)CO)c1I (racemic) [VIIIc, 2,4,6-triiodo-5-(2-DL or L-hydroxypropionylamino)-isophthalic acid-bis-N,N'-(1,3,4-trihydroxy-threo-but-2-yl)-amide] | 21.3 | 0 | 3.0 ± 1.73 | – | 3.4 | 9.4 | 148 | > 400 | 6.6 | Normal | 26 ± 3.2 | lower toxicity than Iopamidol and Metrizamide | –
CN(C(=O)CC(=O)N(C)c1c(I)c(C(=O)NC(CO)C(O)CO)c(I)c(C(=O)NC(CO)C(O)CO)c1I)c1c(I)c(C(=O)NC(CO)C(O)CO)c(I)c(C(=O)NC(CO)C(O)CO)c1I (stereo not drawn) [XVIII, N,N'-bis-Methyl-N,N'-bis [2,4,5-triiodo-3,5-bis-{N,N'-(1,3,4-trihydroxy-threo-but-2-yl)}-carbamoylphenyl]malondiamide] | – | 0 | 0 | Normal | – | – | – | – | – | Normal | 0 | – | Normal
